Results as given in patent publication US20220175954A1, “HYPOXIA-INDUCING CRYOGELS” (priority 2019, published 2022).
pIC50: −log10 of the molar value.

How the values were obtained:
B16-F10 melanoma cells = assay: Cancer cell viability under chemotherapeutic drugs in blank cryogels or HICs; type: cell-based; details: for pIC50: Mus musculus
Procedure: (§1) Data are representative of n=6 samples per set of conditions.
(§2) The capacity of HICs to prevent cancer cell death when exposed to chemotherapeutic drugs was analyzed. 4T1 breast cancer cells or B16-F10 melanoma cells were cultured in normoxia within blank cryogels or HICs and treated with several concentrations of doxorubicin or cisplatin (0.1-100 μM) for 24 h, 48 h, or 72 h. Both 4T1 (FIGS. 24 and 25) and B16-F10 (FIGS. 26 and 27) cells within blank cryogels were sensitive to doxorubicin treatment. […] HICs induced up to 100-fold increase in cancer cell resistance to cisplatin after 72 h compared to blank cryogels.

4T1 breast cancer cells = assay: as above; type: cell-based; details: for pIC50: Mus musculus
Procedure: IC50 was calculated using a linear regression in the linear part of each curve (Y=mX+n with Y=50 and X=IC50). Data are representative of n=6 samples per set of conditions.
as §1, §2

[1] = after 72 h, stated for 4T1 and B16-F10 together

| pIC50 (B16-F10 melanoma cells; B16-F10, 24 h, B16-F10 cells in HICs, 24 h) | pIC50 (B16-F10 melanoma cells; B16-F10, 24 h, B16-F10 cells within blank cryogels, 24 h) | pIC50 (B16-F10 melanoma cells; B16-F10, 48 h, B16-F10 cells in HICs, 48 h) | pIC50 (B16-F10 melanoma cells; B16-F10, 48 h, B16-F10 cells within blank cryogels, 48 h) | pIC50 (B16-F10 melanoma cells; B16-F10, 72 h, B16-F10 cells in HICs, 72 h) | pIC50 (B16-F10 melanoma cells; B16-F10, 72 h, B16-F10 cells within blank cryogels, 72 h) | pIC50 (4T1 breast cancer cells; 4T1, 24 h, 4T1 cells in HICs, 24 h) | pIC50 (4T1 breast cancer cells; 4T1, 24 h, 4T1 cells within blank cryogels, 24 h) | pIC50 (4T1 breast cancer cells; 4T1, 48 h, 4T1 cells in HICs, 48 h) | pIC50 (4T1 breast cancer cells; 4T1, 48 h, 4T1 cells within blank cryogels, 48 h) | pIC50 (4T1 breast cancer cells; 4T1, 72 h, 4T1 cells in HICs, 72 h) | pIC50 (4T1 breast cancer cells; 4T1, 72 h, 4T1 cells within blank cryogels, 72 h) | Compound | increase in cancer cell resistance in HICs compared to blank cryogels (B16-F10 melanoma cells; [1]) | increase in cancer cell resistance in HICs compared to blank cryogels (4T1 breast cancer cells; [1]) |
| --- | --- | --- | --- | --- | --- | --- | --- | --- | --- | --- | --- | --- | --- | --- |
|  |  |  |  |  |  |  |  |  |  |  |  | N.N.[Cl][Pt][Cl] [cisplatin] | up to 100 fold | up to 100 fold |
| 4.25 | 6.04 | 4.34 | 6.43 | 4.33 | 6.42 | 4.25 | 5.97 | 4.29 | 6.26 | 4.33 | 6.48 | COc1cccc2c1C(=O)c1c(O)c3c(c(O)c1C2=O)C[C@@](O)(C(=O)CO)C[C@@H]3O[C@H]1C[C@H](N)[C@H](O)[C@H](C)O1 [doxorubicin] |  |  |
